Laboratory results published in US8685957B1 (Cubist Pharmaceuticals, Inc., priority 2012, dated 2014).

Assay: Hygroscopicity experiments by DVS (water vapor sorption)
Format: physicochemical
Settings: relative to amorphous tazobactam arginine and amorphous tazobactam sodium
Procedure: Analysis by DVS was performed on a VTI SGA-100 water vapor sorption analyser using approximately 18-23 mg of each sample. Each sample was pre-dried at 60° C. for a maximum of 1 hour and then analyzed at 25° C. in 10% relative humidity (RH) steps from 5-95% (adsorption) and then 90-10% RH (desorption). The sample was equilibrated to each humidity level for a maximum of 3 hours or until constant weight was attained. Equilibrium criteria were set at less than 0.0050% weight change within 5 minutes.

Structure (SMILES): C[C@]1(Cn2ccnn2)[C@H](C(=O)O)N2C(=O)CC2S1(=O)=O (stereo partly shown) [Tazobactam arginine polymorph Ia, tazobactam arginine]
- hygroscopicity: low hygroscopicity
